Reference: patent US20250367240A1, “DERIVATION OF GLUCOSE-RESPONSIVE INSULIN-SECRETING CELLS AND ORGANOIDS FROM HUMAN STOMACH CELLS AND THEIR USE TO TREAT DIABETES” (CORNELL UNIVERSITY, priority 2022, published 2025)
“Also recorded” adds a separate entry of the source.

How the values were obtained:
Format in all cases: cell-based, human
GINS organoids [1] = assay: Dynamic GSIS with perifusion; settings: day-21 organoids, two donors; 100 ng/mL Liraglutide in 20 mM glucose; 30 mM KCl in 2 mM glucose
Description: Twenty GINS organoids were sampled for each group. Organoids were washed with RPMIN and equilibrated in 1 mM glucose RPMIN for 2 hours at 37° C. incubator. The assay was performed in RPMIN on a temperature-controlled (37° C.) perifusion system (Biorep Technologies). Organoids were loaded in chambers and perfused at a flow rate of 100 μL/min in the following steps: (1) 48 min in 1 mM glucose, (2) 24 min in 2 mM glucose. (3) 36 min in 20 mM glucose, (4) 24 min in 20 mM glucose with 100 ng/mL Liraglutide (Cayman, 24727), (5) 48 min in 2 mM glucose, (6) 20 min in 2 mM glucose with 30 mM KCl. Secreted insulin was measured using the Stellux Chemi Human Insulin ELISA.

Ngn3ER/PM-hGSCs = assay: Supplement screen to formulate serum-free medium for GINS differentiation; settings: day-7 post differentiation; for INS mRNA levels: single supplement in serum-free basal medium
Description: Ngn3ER/PM-hGSCs were seeded 5 days prior to differentiation in 96-well plate. To start differentiation, 1 μM 4-OH-TAM was added and incubated for 2 days. The culture medium was then changed to serum-free basal medium with one supplement and Doxycycline to activate Pdx1-Mafa expression. The basal serum-free medium for screens was prepared as follows: advanced DMEM/F12 (Thermo Fisher Scientific, 12634010) was supplemented with 10 mM HEPES (Thermo Fisher Scientific, 15-630-080), 1× GlutaMAX (Thermo Fisher Scientific, 35050061), 1× B-27 (Themo Fisher Scientific, 17504044), 1× N-2 (Thermo Fisher Scientific, 17502048), 25 μM Primocin, and 500 μM N-Acetyl-L-Cysteine (NAC) (Sigma-Aldrich, A9165). Seven days after supplement treatment, the following were (1) spontaneous clustering of nascent GINS cells by live imaging of mCherry^+ cells, and (2) qPCR of INS mRNA levels. Then multiple b-cell markers with qPCR on samples treated with Nicotinamide, Y-27632 and A8301 were analyzed.

GINS organoids [2] = assay: Static glucose-stimulated insulin secretion (GSIS); settings: day-18 organoids donor #6; 10 nM glibenclamide or 0.5 mM diazoxide
Description: Ten to twenty GINS organoids were sampled for each group. Organoids were washed with RPMI-1640 no nutrient medium (RPMIN, MyBioSource, MBS652918), and equilibrated in 3.3 mM glucose RPMIN for 2 hours. Organoids were incubated in low-glucose RPMIN for 1 hour, and supernatant was collected. Organoids were then incubated in high-glucose RPMIN for 1 hour, and supernatant was collected. For sequential glucose challenge, organoids were washed 2 times in RPMIN prior to the next stimulation. Secreted insulin was measured using the Stellux Chemi Human Insulin ELISA (ALPCO Diagnostics, 80-INSHU-CH10).

[Cl-].[K+] [KCl]
insulin secretion response of GINS cells to the agent, dynamic GSIS (GINS organoids [1]): responded robustly

Cc1cccc(-c2nn(C(=S)Nc3ccccc3)cc2-c2ccnc3ccccc23)n1 [A8301, 3-(6-methyl-2-pyridinyl)-N-phenyl-4-(4-quinolinyl)-1H-pyrazole-1-carbothioamide]
spontaneous aggregation (clustering) of nascent GINS cells (Ngn3ER/PM-hGSCs; mCherry live imaging): stimulated; also recorded: most observable clustering effect | expression of several key b-cell transcription factors (Ngn3ER/PM-hGSCs; qPCR, vs no supplement control): stimulated

COc1ccc(Cl)cc1C(=O)NCCc1ccc(S(=O)(=O)NC(=O)NC2CCCCC2)cc1 [Glibenclamide]
insulin secretion response of GINS organoids to the drug (GINS organoids [2]): responded

C[C@@H](N)[C@H]1CC[C@H](C(=O)Nc2ccncc2)CC1.Cl.Cl [Y-27632, trans-4-[(1R)-1-aminoethyl]-N-4-pyridinyl-Cyclohexanecarboxamide, dihydrochloride]
INS mRNA levels (Ngn3ER/PM-hGSCs; vs no supplement control, dihydrochloride): significantly promoted; also recorded: significantly up-regulated

CC1=NS(=O)(=O)c2cc(Cl)ccc2N1 [Diazoxide]
insulin secretion response of GINS organoids to the drug (GINS organoids [2]): responded

NC(=O)c1cccnc1 [Nicotinamide, 3-pyridinecarboxamide]
INS mRNA levels (Ngn3ER/PM-hGSCs; vs no supplement control): significantly promoted; also recorded: significantly up-regulated
